# In paper PMC8900464 (Journal of medicinal chemistry, 2022):
# Assays:
# total AKT (T-AKT) = assay: Immunoblotting of total AKT in BT474 cells; type: cell-based; settings: 24 h, western blot; for AKT (T-AKT) degradation: BT474 cells, 1, 5 and 10 μM
# [1] = system: P-AKT (S473), P-PRAS40 (T246), P-S6 (S240/244); assay: Immunoblotting of P-AKT and downstream signaling in BT474 cells; type: cell-based; settings: 24 h
# [2] = BT474 cells, 1, 5 and 10 μM, P-PRAS40 and P-S6, western blot
Compound,AKT (T-AKT) degradation (total AKT (T-AKT)),further results
"NC1(C(=O)N[C@@H](CCN2CCN(C(=O)CCOCCNc3cccc4c3C(=O)N(C3CCC(=O)NC3=O)C4=O)CC2)c2ccc(Cl)cc2)CCN(c2ncnc3[nH]ccc23)CC1 (stereo partly drawn) [Compound 31, 4-Amino-N-((1S)-1-(4-chlorophenyl)-3-(4-(3-(2-((2-(2,6-dioxopiperidin-3-yl)-1,3-dioxoisoindolin-4-yl)amino)ethoxy)propanoyl)-piperazin-1-yl)propyl)-1-(7H-pyrrolo[2,3-d]pyrimidin-4-yl)-piperidine-4-carboxamide]",,"AKT degradation (total AKT (T-AKT); BT474 cells, 10 μM): only moderate AKT degradation"
"Cc1ncsc1-c1ccc(CNC(=O)[C@@H]2C[C@@H](O)CN2C(=O)[C@@H](NC(=O)CCCCCCCCCC(=O)N2CCN(CC[C@H](NC(=O)C3(N)CCN(c4ncnc5[nH]ccc45)CC3)c3ccc(Cl)cc3)CC2)C(C)(C)C)cc1 [Compound 19, 4-Amino-N-((S)-1-(4-chlorophenyl)-3-(4-(11-(((S)-1-((2S,4R)-4-hydroxy-2-((4-(4-methylthiazol-5-yl)benzyl)carbamoyl)pyrrolidin-1-yl)-3,3-dimethyl-1-oxobutan-2-yl)amino)-11-oxoundecanoyl)-piperazin-1-yl)propyl)-1-(7H-pyrrolo[2,3-d]pyrimidin-4-yl)-piperidine-4-carboxamide]",most profound AKT degradation,"downstream signaling inhibition [1, 2]: most profound AKT degradation and downstream signaling inhibition"
"Cc1ncsc1-c1ccc(CNC(=O)[C@@H]2C[C@@H](O)CN2C(=O)[C@@H](N)C(C)(C)C)cc1 [VHL-1, (2S,4R)-1-[(S)-2-amino-3,3-dimethylbutanoyl]-4-hydroxy-N-[4-(4-methylthiazol-5-yl)benzyl]pyrrolidine-2-carboxamide, reference compound]",,"T-AKT protein level (total AKT (T-AKT); BT474 cells, 1 μM): no effect; downstream signaling (PRAS40 and S6 phosphorylation) ([1]; BT474 cells, 1 μM, western blot): no effect"
"NC1(C(=O)N[C@@H](CCN2CCN(C(=O)CCNc3cccc4c3C(=O)N(C3CCC(=O)NC3=O)C4=O)CC2)c2ccc(Cl)cc2)CCN(c2ncnc3[nH]ccc23)CC1 (stereo partly drawn) [Compound 25, 4-Amino-N-((1S)-1-(4-chlorophenyl)-3-(4-(3-((2-(2,6-dioxopiperidin-3-yl)-1,3-dioxoisoindolin-4-yl)amino)propanoyl)piperazin-1-yl)propyl)-1-(7H-pyrrolo[2,3-d]pyrimidin-4-yl)piperidine-4-carboxamide]",negligible AKT degradation,
"NC1(C(=O)N[C@@H](CCN2CCN(C(=O)CCCCCNc3cccc4c3C(=O)N(C3CCC(=O)NC3=O)C4=O)CC2)c2ccc(Cl)cc2)CCN(c2ncnc3[nH]ccc23)CC1 (stereo partly drawn) [Compound 28, 4-Amino-N-((1S)-1-(4-chlorophenyl)-3-(4-(6-((2-(2,6-dioxopiperidin-3-yl)-1,3-dioxoisoindolin-4-yl)amino)hexanoyl)piperazin-1-yl)-propyl)-1-(7H-pyrrolo[2,3-d]pyrimidin-4-yl)piperidine-4-carboxamide]",moderate effectiveness,"downstream signaling inhibition [1, 2]: moderate effectiveness"
"NC1(C(=O)N[C@@H](CCN2CCN(C(=O)CCCNc3cccc4c3C(=O)N(C3CCC(=O)NC3=O)C4=O)CC2)c2ccc(Cl)cc2)CCN(c2ncnc3[nH]ccc23)CC1 (stereo partly drawn) [Compound 26, 4-Amino-N-((1S)-1-(4-chlorophenyl)-3-(4-(4-((2-(2,6-dioxopiperidin-3-yl)-1,3-dioxoisoindolin-4-yl)amino)butanoyl)piperazin-1-yl)-propyl)-1-(7H-pyrrolo[2,3-d]pyrimidin-4-yl)piperidine-4-carboxamide]",moderate effectiveness,"downstream signaling inhibition [1, 2]: moderate effectiveness"
"Cc1ncsc1-c1ccc(CNC(=O)[C@@H]2C[C@@H](O)CN2C(=O)[C@@H](NC(=O)CCOCCC(=O)N2CCN(CC[C@H](NC(=O)C3(N)CCN(c4ncnc5[nH]ccc45)CC3)c3ccc(Cl)cc3)CC2)C(C)(C)C)cc1 [Compound 4, 4-Amino-N-((S)-1-(4-chlorophenyl)-3-(4-(3-(3-(((S)-1-((2S,4R)-4-hydroxy-2-((4-(4-methylthiazol-5-yl)benzyl)carbamoyl)pyrrolidin-1-yl)-3,3-dimethyl-1-oxobutan-2-yl)amino)-3-oxopropoxy)-propanoyl)piperazin-1-yl)propyl)-1-(7H-pyrrolo[2,3-d]pyrimidin-4-yl)piperidine-4-carboxamide]",decreased the AKT degradation effectiveness,
"Cc1ncsc1-c1ccc(CNC(=O)[C@@H]2C[C@@H](O)CN2C(=O)[C@@H](NC(=O)CCC(=O)N2CCN(CC[C@H](NC(=O)C3(N)CCN(c4ncnc5[nH]ccc45)CC3)c3ccc(Cl)cc3)CC2)C(C)(C)C)cc1 [Compound 12, 4-Amino-N-((S)-1-(4-chlorophenyl)-3-(4-(4-(((S)-1-((2S,4R)-4-hydroxy-2-((4-(4-methylthiazol-5-yl)benzyl)carbamoyl)pyrrolidin-1-yl)-3,3-dimethyl-1-oxobutan-2-yl)amino)-4-oxobutanoyl)-piperazin-1-yl)propyl)-1-(7H-pyrrolo[2,3-d]pyrimidin-4-yl)-piperidine-4-carboxamide]",inactive at reducing the T-AKT protein level,
"NC1(C(=O)N[C@@H](CCN2CCN(C(=O)CNc3cccc4c3C(=O)N(C3CCC(=O)NC3=O)C4=O)CC2)c2ccc(Cl)cc2)CCN(c2ncnc3[nH]ccc23)CC1 (stereo partly drawn) [Compound 24, 4-Amino-N-((1S)-1-(4-chlorophenyl)-3-(4-((2-(2,6-dioxopiperidin-3-yl)-1,3-dioxoisoindolin-4-yl)glycyl)piperazin-1-yl)propyl)-1-(7H-pyrrolo[2,3-d]pyrimidin-4-yl)piperidine-4-carboxamide]",negligible AKT degradation,
"Cc1ncsc1-c1ccc(CNC(=O)[C@@H]2C[C@@H](O)CN2C(=O)[C@@H](NC(=O)COCC(=O)N2CCN(CC[C@H](NC(=O)C3(N)CCN(c4ncnc5[nH]ccc45)CC3)c3ccc(Cl)cc3)CC2)C(C)(C)C)cc1 [Compound 3, 4-Amino-N-((S)-1-(4-chlorophenyl)-3-(4-(2-(2-(((S)-1-((2S,4R)-4-hydroxy-2-((4-(4-methylthiazol-5-yl)benzyl)carbamoyl)pyrrolidin-1-yl)-3,3-dimethyl-1-oxobutan-2-yl)amino)-2-oxoethoxy)acetyl)-piperazin-1-yl)propyl)-1-(7H-pyrrolo[2,3-d]pyrimidin-4-yl)-piperidine-4-carboxamide]",most significant T-AKT degradation,"downstream signaling inhibition [1, 2]: most effective inhibition of the downstream signaling"
"NC1(C(=O)N[C@@H](CCN2CCN(C(=O)CCOCCOCCOCCOCCOCCNc3cccc4c3CN(C3CCC(=O)NC3=O)C4=O)CC2)c2ccc(Cl)cc2)CCN(c2ncnc3[nH]ccc23)CC1 (stereo partly drawn) [Compound 39, 4-Amino-N-((1S)-1-(4-chlorophenyl)-3-(4-(1-((2-(2,6-dioxopiperidin-3-yl)-1-oxoisoindolin-4-yl)amino)-3,6,9,12,15-pentaoxaoctadecan-18-oyl)piperazin-1-yl)propyl)-1-(7H-pyrrolo[2,3-d]pyrimidin-4-yl)piperidine-4-carboxamide]",significantly decreased effectiveness in AKT degradation,
"Cc1ncsc1-c1ccc(CNC(=O)[C@@H]2C[C@@H](O)CN2C(=O)[C@@H](NC(=O)CCCC(=O)N2CCN(CC[C@H](NC(=O)C3(N)CCN(c4ncnc5[nH]ccc45)CC3)c3ccc(Cl)cc3)CC2)C(C)(C)C)cc1 [Compound 13, 4-Amino-N-((S)-1-(4-chlorophenyl)-3-(4-(5-(((S)-1-((2S,4R)-4-hydroxy-2-((4-(4-methylthiazol-5-yl)benzyl)carbamoyl)pyrrolidin-1-yl)-3,3-dimethyl-1-oxobutan-2-yl)amino)-5-oxopentanoyl)-piperazin-1-yl)propyl)-1-(7H-pyrrolo[2,3-d]pyrimidin-4-yl)-piperidine-4-carboxamide]",inactive at reducing the T-AKT protein level,
"Cc1ncsc1-c1ccc(CNC(=O)[C@@H]2C[C@@H](O)CN2C(=O)[C@@H](NC(=O)CCCCC(=O)N2CCN(CC[C@H](NC(=O)C3(N)CCN(c4ncnc5[nH]ccc45)CC3)c3ccc(Cl)cc3)CC2)C(C)(C)C)cc1 [Compound 14, 4-Amino-N-((S)-1-(4-chlorophenyl)-3-(4-(6-(((S)-1-((2S,4R)-4-hydroxy-2-((4-(4-methylthiazol-5-yl)benzyl)carbamoyl)pyrrolidin-1-yl)-3,3-dimethyl-1-oxobutan-2-yl)amino)-6-oxohexanoyl)-piperazin-1-yl)propyl)-1-(7H-pyrrolo[2,3-d]pyrimidin-4-yl)-piperidine-4-carboxamide]",,"AKT degradation (total AKT (T-AKT); BT474 cells, 5 μM): improved AKT degradation; downstream signaling inhibition ([1]; BT474 cells, 5 μM, western blot): significant downstream signaling inhibition"
"NC1(C(=O)N[C@@H](CCN2CCN(C(=O)CCCCCCCNc3cccc4c3C(=O)N(C3CCC(=O)NC3=O)C4=O)CC2)c2ccc(Cl)cc2)CCN(c2ncnc3[nH]ccc23)CC1 (stereo partly drawn) [Compound 30, 4-Amino-N-((1S)-1-(4-chlorophenyl)-3-(4-(8-((2-(2,6-dioxopiperidin-3-yl)-1,3-dioxoisoindolin-4-yl)amino)octanoyl)piperazin-1-yl)-propyl)-1-(7H-pyrrolo[2,3-d]pyrimidin-4-yl)piperidine-4-carboxamide]",negligible AKT degradation,
"NC1(C(=O)N[C@@H](CCN2CCN(C(=O)CCCCCCNc3cccc4c3C(=O)N(C3CCC(=O)NC3=O)C4=O)CC2)c2ccc(Cl)cc2)CCN(c2ncnc3[nH]ccc23)CC1 (stereo partly drawn) [Compound 29, 4-Amino-N-((1S)-1-(4-chlorophenyl)-3-(4-(7-((2-(2,6-dioxopiperidin-3-yl)-1,3-dioxoisoindolin-4-yl)amino)heptanoyl)piperazin-1-yl)propyl)-1-(7H-pyrrolo[2,3-d]pyrimidin-4-yl)piperidine-4-carboxamide]",negligible AKT degradation,
